Results: patent US10266520B2, “Bisamidinium-based inhibitors for the treatment of myotonic dystrophy” (The Board of Trustees of the University of Illinois, priority 2014, dated 2019)

Key:
[1] = tested on: MBNL1-rCUG^exp nuclear foci; experiment: Nuclear foci quantification with endogenous MBNL1 (immunofluorescence) in DM1 model cells; type: cell-based; settings: 48 h
Method: (§1) FIG. 2A-C. (a) Representative confocal microscope images showing the GFP-MBNL-rCUG^exp foci disruption by compounds 1a and 2a. (b) Percent of foci area per cell after treatment of ligands for 48 h. The sequestration and dispersion of endogenous MBNL under the treatment of ligand are quantitatively measured. Error bars represent standard errors of mean from at least four independent experiments, two-tail t-test *P<0.005. Note: This was a head-to-head comparison between compounds 1a and 2a. […] The difference is attributed to variability in cells and conditions. (c) Cytotoxicity profile of compound 2a.
In addition, a parallel experiment using endogenous MBNL1 in place of GFP-MBNL1 was conducted to quantify foci reduction in a model that more closely resembles DM1 patient cells. The endogenous MBNL1 was detected by an immunofluorescence technique (Alexa Fluor® 488 dye-labeled antibody) (Wong et al., J. Am. Chem. Soc. 2014, 136, 6355-6361). […] Incubation of 2a at 10 μM decreased the foci area to ca. 36%, but a similar level was also observed for the 100 μM treatment. It is encouraging that dimeric ligand 2a is as active at 1 μM as monomeric ligand 1a is at 100 μM. However, the lack of an obvious dose dependence and failure to fully dissolved nuclear foci at 100 μM may indicate a cellular penetration issue for 2a. Further study is underway.
(§2) ITC, EMSA, confocal microscopy, IR splicing, and the reversal of rough-eye phenotype assays were conducted as previously described (Wong et al., J. Am. Chem. Soc. 2014, 136, 6355-6361). The cytotoxicity of 2a was accessed using a published protocol (Vichai et al., Sulforhodamine B colorimetric assay for cytotoxicity screening, Nat. Protoc. 2006, 1, 1112-1116).

[2] = earlier work; cited from earlier work
[3] = earlier work; cited from earlier work; remark: listed apart in the source
[4] = tested on: Drosophila flies (gmr-GAL4>UAS-i(CTG)480; CTG60 control); experiment: Rough eye phenotype in DM1 Drosophila model; type: in vivo; settings: for eye structure of control flies: 400 μM, CTG60 Drosophila flies
Method: FIG. 4A-C. Efficacy of 1a and 2a in DM1 Drosophilia fly mode. (a) Improvement in adult rough eye phenotype. Each experiment was conducted in triplicate. (b) Effect of ligands on the control Drosophilia larvae (24B−GAL4>UAS−(CTG)60). (c) Dose-dependent effect of ligands on the DM1 larvae (24B−GAL4>UAS−i(CTG)480). Each experiment was conducted in triplicate, 10 individual larvae for each trial. Error bars represent standard deviation, two tail t-test *P<0.05, **P<0.01, ***P<0.001.
Drosophila lines were cultured in standard cornmeal medium supplemented with dry yeasts. Fly lines bearing UAS-(CTG)60 and UAS-(CTG)480 were kind gifts of Prof. Rubén Artero Allepuz (Universitate de València, Estudi General, Spain). The gmr-GAL4 and […] lines were used to drive UAS transgene expression in eye and muscles respectively. Ligands 1a and 2a were dissolved in ddH2O and mixed with fly food. Genetic crosses were set up in drug-containing fly food at 21.5° C. for external eye assay, and at 25° C. for larval crawling assay.

GFP-MBNL-rCUG^exp foci = experiment: Nuclear foci disruption, FISH/confocal with GFP-MBNL1 in DM1 model HeLa cells; type: cell-based
Method: as §1
To evaluate the ability of dimer 2a to disrupt the […] in DM1 model cells, a standard fluorescence in situ hybridization experiment using exogenous MBNL was performed (FIG. 2a) (see Jahromi et al., ACS Chem. Biol. 2013, 8, 1037-1043). Here, GFP-MBNL1 was employed because of its intense signal and ability to easily monitor the location of the MBNL1 in live cells. Thus, normal HeLa cells were transfected with a plasmid containing GFP-MBNL1. To generate DM1 model cells, these HeLa cells were also transfected with a DMPK plasmid containing (CTG)960. […] The presence of MBNL1 was indicated as a green color from GFP signal for GFP-MBNL1 (Column 2), whereas (CUG)960 was detected by a complementary sequence (CAG)10 conjugated with a Cy3 dye and represented by a red color (Column 3). […]

MBNL1-(CUG)12 complex = settings: earlier work; read-out: KI, inhibition of MBNL1-(CUG)12 complex; cited from earlier work
HeLa cells = experiment: SRB cytotoxicity assay; type: cell-based
Method: This finding indicates an advantage of the bisamidinium-based ligands over the acridine-containing ligands.
as §2

[5] = tested on: insulin receptor (IR) pre-mRNA splicing; experiment: Correction of IR alternative splicing in DM1 cell model (RT-PCR); type: cell-based; settings: 1 μM
From the text: FIG. 3A-B. (a) Schematic representation of IR alternative splicing. (b) Correction of IR splicing by compounds 2a and 1a as determined by conventional RT-PCR. Error bars represent standard deviation for three independent experiments, two-tail t-test *P<0.01,**P<0.005.
Because 2a is capable of inhibiting MBNL1-rCUG^exp both in vitro and in cells, we evaluated its ability to correct the splicing defects in the DM1 cell model. We chose to examine the IR mRNA mis-splicing, because among several pre-mRNA splicing defects associated with the depletion of MBNL1 protein, the reversal of IR splicing requires the largest amount of free MBNL1 and is therefore the more challenging defect. During the alternative splicing of IR, two products were generated: isoforms IR-A and IR-B with the exclusion and inclusion of exon 11, respectively (FIG. 3a). In normal skeletal muscle, IR-B is the dominant isoform, whereas IR-A is more abundant in DM1 skeletal muscle. […] In particular, compound 2a at 1 μM increased the abundance of isoform B to 49% (ca. 80% correction).
ITC, EMSA, confocal microscopy, IR splicing, and the reversal of rough-eye phenotype assays were conducted as previously described (Wong et al., J. Am. Chem. Soc. 2014, 136, 6355-6361). […]

SMILES | nuclear foci remaining / foci area ([1]; 100 μM) | cytotoxicity [2] | water solubility [3] | eye structure of control flies [4] | foci dispersion (GFP-MBNL1) (GFP-MBNL-rCUG^exp foci; 100 μM) | Ki (MBNL1-(CUG)12 complex) | nuclear foci remained after treatment ([1]; 1 μM) | foci area after treatment ([1]; 10 μM) | HeLa cell death (HeLa cells; 100 μM, 96 h) | cellular toxicity (HeLa cells; lower concentrations (below 100 μM)) | correction of IR splicing ([5]; DM1 cell model) | abundance of IR isoform B ([5]; DM1 cell model (normal ca. 53%, DM1 34%)) | rough eye phenotype ([4]; 50 μM in fly food, gmr-GAL4>UAS-i(CTG)480 flies) | foci dispersion (GFP-MBNL1) (GFP-MBNL-rCUG^exp foci; 1, 10, and 100 μM)
N=C(NCCCCNc1nc(N)nc(N)n1)c1ccc(C(=N)NCCCCNc2nc(N)nc(N)n2)cc1 [Compound 1a] | ca. 90% | low cytotoxicity | excellent water solubility | did not change the fly's eye structure | foci dispersion was observed | 8 µM |  |  |  |  |  |  |  | 
N=C(NCCCCNc1nc(N)nc(N)n1)c1ccc(C(=N)NCCCCNc2nc(N)nc(NCCCn3cc(CNc4nc(N)nc(NCCCCNC(=N)c5ccc(C(=N)NCCCCNc6nc(N)nc(N)n6)cc5)n4)nn3)n2)cc1 [Compound 2a] |  |  |  | did not change the fly's eye structure |  |  | approximately 72% | ca. 36% | ca. 10% | negligible cellular toxicity | ca. 80% | 49% | partial reversal of rough eye phenotypes | foci dispersion was observed
